{
  "source": "patent US11066414B2",
  "about": "“Cot modulators and methods of use thereof” (Gilead Sciences, Inc., priority 2015, dated 2021)",
  "key": {"TNFα": {"system": "TNFα", "assay": "Cot Monocyte TNFα Cell Based Assay"}, "Human Cot": {"molecular_target": "Human Cot (Homo sapiens (Human), UniProt P41279)", "sequence (P41279 30-397)": "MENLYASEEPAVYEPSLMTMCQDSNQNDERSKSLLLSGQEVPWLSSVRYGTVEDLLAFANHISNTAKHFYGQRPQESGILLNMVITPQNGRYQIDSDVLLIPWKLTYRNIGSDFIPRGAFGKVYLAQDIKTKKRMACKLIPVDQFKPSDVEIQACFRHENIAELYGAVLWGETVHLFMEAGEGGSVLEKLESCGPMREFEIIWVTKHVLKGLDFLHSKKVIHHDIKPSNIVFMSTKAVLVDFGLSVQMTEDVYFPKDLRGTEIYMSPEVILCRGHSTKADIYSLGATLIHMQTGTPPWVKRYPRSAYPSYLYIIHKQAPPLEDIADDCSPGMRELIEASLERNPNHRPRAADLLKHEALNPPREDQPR", "assay": "High Throughput Cot Biochemical Assay", "details": "Cot HTRF (TR-FRET) biochemical assay"}, "[1]": {"details": "Homo sapiens, Monocyte, read-out: EC50 TNF, LPS-stimulated human monocytes, TNFα"}},
  "note": "Where two headings read alike, the source gives them in different places.",
  "data": [
    {"smiles": "Cc1ncccc1[C@H](Nc1cc(Cl)c2ncc(C#N)c(Nc3cccc(Cl)c3F)c2c1)c1cn(C2CCN(C(C)(C)C)CC2)nn1", "note": "[Example 247, (S)-6-(((1-(1-(tert-butyl)piperidin-4-yl)-1H-1,2,3-triazol-4-yl)(2-methylpyridin-3-yl)methyl)amino)-8-chloro-4-((3-chloro-2-fluorophenyl)amino)quinoline-3-carbonitrile]", "values": [
      {"measurement": "EC50", "setting": "TNFα; [1]", "result": 102, "unit": "nM"},
      {"measurement": "IC50", "setting": "Human Cot; read-out: IC50 HTRF", "result": 2, "unit": "nM"}
    ]},
    {"smiles": "Cn1ccc2c([C@H](Nc3cc(Cl)c4ncc(C#N)c(NCC(C)(C)C)c4c3)c3cn(C45CC(C4)C5)nn3)cccc21", "note": "[Example 735, (S)-6-(((1-(bicyclo[1.1.1]pentan-1-yl)-1H-1,2,3-triazol-4-yl)(1-methyl-1H-indol-4-yl)methyl)amino)-8-chloro-4-(neopentylamino)quinoline-3-carbonitrile]", "values": [
      {"measurement": "EC50", "setting": "TNFα; [1]", "result": 478, "unit": "nM"},
      {"measurement": "IC50", "setting": "Human Cot; IC50 HTRF", "result": 47, "unit": "nM"}
    ]},
    {"smiles": "[2H]C(Nc1cc(Cl)c2ncc(C#N)c(NC(CCC#N)c3ccccc3)c2c1)(c1ccc(F)nc1)c1cn(C2CC2)nn1", "note": "(stereo not drawn) [Example 93, 8-chloro-4-((3-cyano-1-phenylpropyl)amino)-6-(((1-cyclopropyl-1H-1,2,3-triazol-4-yl)(6-fluoropyridin-3-yl)methyl-d)amino)quinoline-3-carbonitrile]", "values": [
      {"measurement": "EC50", "setting": "TNFα; [1]", "result": 74, "unit": "nM"},
      {"measurement": "IC50", "setting": "Human Cot; IC50 HTRF", "result": 7, "unit": "nM"}
    ]},
    {"smiles": "CC1(C)COCC[C@H]1Nc1c(C#N)cnc2c(C#N)cc(N[C@H](c3cn(C4(C(F)(F)F)CC4)nn3)c3cccc4ncsc34)cc12", "note": "[Example 474, 6-(((S)-benzo[d]thiazol-7-yl(1-(1-(trifluoromethyl)cyclopropyl)-1H-1,2,3-triazol-4-yl)methyl)amino)-4-(((R)-3,3-dimethyltetrahydro-2H-pyran-4-yl)amino)quinoline-3,8-dicarbonitrile]", "values": [
      {"measurement": "EC50", "setting": "TNFα; [1]", "result": 26, "unit": "nM"},
      {"measurement": "IC50", "setting": "Human Cot; IC50 HTRF", "result": 2, "unit": "nM"}
    ]},
    {"smiles": "N#Cc1cnc2c(Cl)cc(N[C@@H](C3=CCOCC3)c3c[nH]nn3)cc2c1Nc1ccc(Cl)c(Cl)c1F", "note": "[Example 211, (S)-8-chloro-4-((3,4-dichloro-2-fluorophenyl)amino)-6-(((3,6-dihydro-2H-pyran-4-yl)(1H-1,2,3-triazol-4-yl)methyl)amino)quinoline-3-carbonitrile]", "values": [
      {"measurement": "EC50", "setting": "TNFα; [1]", "result": 544, "unit": "nM"},
      {"measurement": "IC50", "setting": "Human Cot; IC50 HTRF", "result": 16, "unit": "nM"}
    ]},
    {"smiles": "Cc1ncccc1[C@H](Nc1cc(Cl)c2ncc(C#N)c(N[C@H](CO)c3ccccc3)c2c1)c1c[nH]nn1", "note": "[Example 218, 8-chloro-4-(((S)-2-hydroxy-1-phenylethyl)amino)-6-(((S)-(2-methylpyridin-3-yl)(1H-1,2,3-triazol-4-yl)methyl)amino)quinoline-3-carbonitrile]", "values": [
      {"measurement": "EC50", "setting": "TNFα; [1]", "result": 2710, "unit": "nM"},
      {"measurement": "IC50", "setting": "Human Cot; IC50 HTRF", "result": 26, "unit": "nM"}
    ]},
    {"smiles": "C[C@@H](Nc1c(C#N)cnc2c(Cl)cc(N[C@H](c3c[nH]nn3)c3csc4c3CCN(C3COC3)C4)cc12)c1ccccc1", "note": "[Example 238, 8-chloro-6-(((S)-(6-(oxetan-3-yl)-4,5,6,7-tetrahydrothieno[2,3-c]pyridin-3-yl)(1H-1,2,3-triazol-4-yl)methyl)amino)-4-(((R)-1-phenylethyl)amino)quinoline-3-carbonitrile]", "values": [
      {"measurement": "EC50", "setting": "TNFα; [1]", "result": 901, "unit": "nM"},
      {"measurement": "IC50", "setting": "Human Cot; IC50 HTRF", "result": 3, "unit": "nM"}
    ]},
    {"smiles": "[2H][C@](Nc1cc(C#N)c2ncc(C#N)c(N[C@H](CC#N)c3ccccc3)c2c1)(c1ccc(F)nc1)c1cn(C2CC2)nn1", "note": "[Example 100, 4-(((R)-2-cyano-1-phenylethyl)amino)-6-(((S)-(1-cyclopropyl-1H-1,2,3-triazol-4-yl)(6-fluoropyridin-3-yl)methyl-d)amino)quinoline-3,8-dicarbonitrile]", "values": [
      {"measurement": "EC50", "setting": "TNFα; [1]", "result": 142, "unit": "nM"},
      {"measurement": "IC50", "setting": "Human Cot; IC50 HTRF", "result": 3, "unit": "nM"}
    ]},
    {"smiles": "Cc1nc(F)ccc1[C@H](Nc1cc(Cl)c2ncc(C#N)c(NCC(C)(C)C)c2c1)c1cn([C@@H]2C[C@@H]2F)nn1", "note": "[Example 579, 8-chloro-6-(((S)-(6-fluoro-2-methylpyridin-3-yl)(1-((lR,2S)-2-fluorocyclopropyl)-1H-1,2,3-triazol-4-yl)methyl)amino)-4-(neopentylamino)quinoline-3-carbonitrile]", "values": [
      {"measurement": "EC50", "setting": "TNFα; read-out: EC50 TNF, LPS-stimulated human monocytes, TNFα", "result": 24, "unit": "nM"},
      {"measurement": "IC50", "setting": "Human Cot; read-out: IC50 HTRF", "result": 2, "unit": "nM"}
    ]}
  ]
}
